Assay [1] addresses human adenosine A2B receptor (Homo sapiens (Human), UniProt P29275). As to the kind of experiment: Adenosine A2B Receptor Cyclic AMP GS Assay. The class given is cell-based. The following applies: HEK-293 cells expressing human A2B; agonist NECA 12 nM; cAMP accumulation by FRET; read-out: A2B_cAMP_EC50. The method, then: Example B. Adenosine A2B Receptor Cyclic AMP GS Assay Stably transfected HEK-293 cells expressing the human adenosine A2B receptor (Perkin Elmer) were maintained in MEM culture medium with 10% FBS and 100 μg/ml Geneticin (Life Technologies). 18 to 24 hours prior to assay, geneticin was removed from culture. The cisbio cAMP-GS Dynamic kit utilizing the FRET (Fluorescence Resonance Energy Transfer) technology was used to measure cAMP accumulation in the cells. Compounds of the present disclosure at an appropriate concentration were mixed with 10000 cells/well in white 96 well half area plates (Perkin Elmer) for 30 min at room temperature gently shaking. Agonist, NECA (R&D Technologies) at 12 nM was added to each well for 60 min at room temperature gently shaking. Detection reagents, d2-labeled cAMP (acceptor) and anti-cAMP cryptate (donor) were added to each well for 60 min at RT gently shaking. Plates were read on Pherastar (BMG Labtech), fluorescence ratio 665/620 was calculated and EC50 determination was performed by fitting the curve of percent of control versus the log of the compound concentration using GraphPad Prism.
On the technique in general: Changes in cAMP serve as a functional read-out for many G protein-coupled receptors.

The target of assay [2] is Adenosine A2A receptor (Tag-lite Adenosine A2A labeled cells) (Homo sapiens (Human), UniProt P29274). Description: A2A Tag-lite HTRF assay (fluorescent ligand displacement). The following applies: Red antagonist fluorescent ligand 12.5 nM, one-site competitive binding model, read-out: A2A_Ki. The source says: Example C. A2A Tag-Lite® HTRF Assay
The final concentration of DMSO was 1%.
In general terms: In TR-FRET formats the signal depends on donor and acceptor labels being close together.

Sequence of human adenosine A2B receptor (P29275 whole entry): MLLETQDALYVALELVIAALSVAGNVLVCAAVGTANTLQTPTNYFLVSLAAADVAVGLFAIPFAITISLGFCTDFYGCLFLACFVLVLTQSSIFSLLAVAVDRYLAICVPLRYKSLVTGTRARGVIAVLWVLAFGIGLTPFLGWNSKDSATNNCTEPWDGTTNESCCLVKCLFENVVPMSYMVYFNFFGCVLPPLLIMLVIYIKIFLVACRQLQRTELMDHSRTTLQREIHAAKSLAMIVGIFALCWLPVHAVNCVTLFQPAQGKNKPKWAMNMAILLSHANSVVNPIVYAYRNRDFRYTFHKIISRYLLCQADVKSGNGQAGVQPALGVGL
Sequence of Adenosine A2A receptor (Tag-lite Adenosine A2A labeled cells) (P29274 whole entry): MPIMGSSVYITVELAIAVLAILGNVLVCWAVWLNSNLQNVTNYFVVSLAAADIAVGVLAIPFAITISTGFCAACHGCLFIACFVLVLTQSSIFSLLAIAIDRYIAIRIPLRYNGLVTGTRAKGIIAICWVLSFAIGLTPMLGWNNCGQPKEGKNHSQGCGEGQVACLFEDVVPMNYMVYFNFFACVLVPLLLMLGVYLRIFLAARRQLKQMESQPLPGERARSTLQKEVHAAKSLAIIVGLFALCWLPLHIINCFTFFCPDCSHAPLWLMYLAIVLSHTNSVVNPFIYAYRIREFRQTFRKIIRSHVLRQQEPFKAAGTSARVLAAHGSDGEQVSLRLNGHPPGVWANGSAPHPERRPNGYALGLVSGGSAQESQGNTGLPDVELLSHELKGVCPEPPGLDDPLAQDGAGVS

On to `CCCCCn1c2cc(-c3cnn(Cc4ccc5c(c4)CCN(C(=O)CN(C)C)C5)c3)[nH]c2c(=O)n2c(C)nnc12` [Example 30, 7-(1-((2-(2-(Dimethylamino)acetyl)-1,2,3,4-tetrahydroisoquinolin-6-yl)methyl)-1H-pyrazol-4-yl)-3-methyl-9-pentyl-6,9-dihydro-5H-pyrrolo[3,2-d][1,2,4]triazolo[4,3-a]pyrimidin-5-one], for which the EC50 in assay [1] is < 10 nM. The Ki in assay [2] is < 10 nM.
On to `CCCCCn1c2cc(-c3cnn(C4CN(c5nccc(NC)n5)C4)c3)[nH]c2c(=O)n2c(C)nnc12` [Example 23, 3-Methyl-7-(1-(1-(4-(methylamino)pyrimidin-2-yl)azetidin-3-yl)-1H-pyrazol-4-yl)-9-pentyl-6,9-dihydro-5H-pyrrolo[3,2-d][1,2,4]triazolo[4,3-a]pyrimidin-5-one], for which, in assay [1], the EC50 fell in the range of 10 to 100 nM. For the same compound, the Ki in assay [2] was < 10 nM.
In the same order, the values of `CCCCn1c2cc(-c3cnn(C4CN(c5nccc(C#N)n5)C4)c3)[nH]c2c(=O)n2c(C)nnc12` [Example 25, 2-(3-(4-(9-Butyl-3-methyl-5-oxo-6,9-dihydro-5H-pyrrolo[3,2-d][1,2,4]triazolo[4,3-a]pyrimidin-7-yl)-1H-pyrazol-1-yl)azetidin-1-yl)pyrimidine-4-carbonitrile] are 10 to 100 nM and < 10 nM.
Consider `CCCCCn1c2cc(-c3cnn(Cc4cncc(Cl)c4)c3)[nH]c2c(=O)n2c(C)nnc12` [Example 2, 7-(1-((5-Chloropyridin-3-yl)methyl)-1H-pyrazol-4-yl)-3-methyl-9-pentyl-6,9-dihydro-5H-pyrrolo[3,2-d][1,2,4]triazolo[4,3-a]pyrimidin-5-one], for which the EC50 in assay [1] was 10 to 100 nM. Also, the Ki in assay [2] is < 10 nM.
On the same counts, the results for `CCCCn1c2cc(-c3cnn(C4CN(c5nccc(C)n5)C4)c3)[nH]c2c(=O)n2c(C)nnc12` [Example 26, 9-Butyl-3-methyl-7-(1-(1-(4-methylpyrimidin-2-yl)azetidin-3-yl)-1H-pyrazol-4-yl)-6,9-dihydro-5H-pyrrolo[3,2-d][1,2,4]triazolo[4,3-a]pyrimidin-5-one] are 10 to 100 nM and < 10 nM.
On the same counts, the results for `CCCCn1c2cc(-c3cnn(C4CN(c5nccc(N)n5)C4)c3)[nH]c2c(=O)n2c(C)nnc12` [Example 28, 7-(1-(1-(4-Aminopyrimidin-2-yl)azetidin-3-yl)-1H-pyrazol-4-yl)-9-butyl-3-methyl-6,9-dihydro-5H-pyrrolo[3,2-d][1,2,4]triazolo[4,3-a]pyrimidin-5-one] are 10 to 100 nM and < 10 nM.
As to `CCCCCn1c2cc(-c3cnn(Cc4ccn5ccnc5c4)c3)[nH]c2c(=O)n2c(C)nnc12` [Example 5, 7-(1-(Imidazo[1,2-a]pyridin-7-ylmethyl)-1H-pyrazol-4-yl)-3-methyl-9-pentyl-6,9-dihydro-5H-pyrrolo[3,2-d][1,2,4]triazolo[4,3-a]pyrimidin-5-one], the EC50 in assay [1] fell in the range of 10 to 100 nM. Besides, the Ki in assay [2] is < 10 nM.
For `CCCCn1c2cc(-c3cnn(C4CN(c5ncc(F)c(N)n5)C4)c3)[nH]c2c(=O)n2c(C)nnc12` [Example 29, 7-(1-(1-(4-Amino-5-fluoropyrimidin-2-yl)azetidin-3-yl)-1H-pyrazol-4-yl)-9-butyl-3-methyl-6,9-dihydro-5H-pyrrolo[3,2-d][1,2,4]triazolo[4,3-a]pyrimidin-5-one], in assay [1], the EC50 is 10 to 100 nM. Moreover, in assay [2], the Ki is < 10 nM.
For the compound `CCCCn1c2cc(-c3cnn(C4CN(c5ncccn5)C4)c3)[nH]c2c(=O)n2c(C)nnc12` [Example 24, 9-Butyl-3-methyl-7-(1-(1-(pyrimidin-2-yl)azetidin-3-yl)-1H-pyrazol-4-yl)-6,9-dihydro-5H-pyrrolo[3,2-d][1,2,4]triazolo[4,3-a]pyrimidin-5-one], the EC50 in assay [1] lay within 10 to 100 nM. Moreover, the Ki in assay [2] is < 10 nM.

Values taken from US11220510B2, “Pyrrole tricyclic compounds as A2A / A2B inhibitors” (Incyte Corporation, priority 2018, dated 2022).
